Measured values from US9227971B2, “Pyrazolo[1,5-a]pyrimidine compounds as mTOR inhibitors” (Merck Sharp & Dohme Corp., priority 2010, dated 2016).

Key:
human mTOR enzyme = human mTOR enzyme (Homo sapiens, UniProt P42345); assay: mTOR kinase assay (HTRF mTOR enzyme assay); assay type: biochemical; conditions: 5 μM ATP, 0.2 μM GST-S6K, one hour at 30° C.
Protocol: An HTRF mTOR enzyme assay was developed to assess the compounds' inhibitory activity. The mTOR assay buffer contained 10 mM Hepes (pH 7.4), 50 mM NaCl, 100 μg/ml BSA, 50 mM B-glycerophosphate, 10 mM MnCl2 and 0.5 mM DTT. […] 20 ng of human mTOR enzyme (<5% pure was preincubated with the compound for 10 minutes followed by the addition of 5 μM ATP and 0.2 μM GST-S6K (Zhang et al., Protein Expression and Purification 46, pp 414-420 (2006)). The reaction was incubated for one hour at 30° C. Anti phospho p70-S6K(Thr389) (˜1.7 ng/well, anti-phospho-p70S6K-cryptate (Pho-p70S6-Kin-K cat#64CUSKAY, from Cisbio)) and anti GST-XL665 (1:1 Ratio with the substrate GST-S6K, anti GST-XL665, cat#61 GSTXLB) Cisbio) were added after the reaction was stopped. The plates were read (PHERAstar, BMG) at least 2 hours after adding the anti phospho p70-S6K and the anti GST-XL665.
Dose-response curves were plotted from the inhibition data generated, each in duplicate, from 8 point serial dilutions of inhibitory compounds. Concentration of compound was plotted against the HTRF em665/em590 ratio signal. To generate IC50 values, the dose-response curves were fitted to a standard sigmoidal curve and IC50 values were derived by nonlinear regression analysis.

[1] = test system: phosphorylated AKT Ser473 (pAKT S473), mTORC2 activity, PC3 cells; assay: mTOR target engagement assay, immunofluorescent cell-based, pAKT S473 readout (mTORC2 activity); conditions: Homo sapiens, PC-3, PC3 cells; given as a number, no unit
Summary of the method: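 After blocking, cells were stained overnight at 4 °C with anti-pAKT S473 antibody, then a fluorescent secondary; inhibition was read as reduced fluorescence intensity.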

[2] = test system: phosphorylated 4E-BP1 Thr37/46 (p4E-BP1 Thr37/46), mTORC1 activity, PC3 cells; assay: mTOR target engagement assay, immunofluorescent cell-based, p4E-BP1 Thr37/46 readout (mTORC1 activity); conditions: Homo sapiens, PC-3, PC3 cells; given as a number, no unit; read-out: p4E-1 Thr37/46 IC50
Summary of the method: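 Read-out is fluorescence intensity of immunostained p4E-BP1 Thr37/46 in fixed PC3 cells, fitted to a logistic curve for IC50 with DMSO-only wells as top. Cells had been exposed to serial compound dilutions for ninety minutes at 37° C in 5% FBS medium with 0.25% DMSO.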

Sequence of human mTOR enzyme (P42345 1360-2549 limits assumed): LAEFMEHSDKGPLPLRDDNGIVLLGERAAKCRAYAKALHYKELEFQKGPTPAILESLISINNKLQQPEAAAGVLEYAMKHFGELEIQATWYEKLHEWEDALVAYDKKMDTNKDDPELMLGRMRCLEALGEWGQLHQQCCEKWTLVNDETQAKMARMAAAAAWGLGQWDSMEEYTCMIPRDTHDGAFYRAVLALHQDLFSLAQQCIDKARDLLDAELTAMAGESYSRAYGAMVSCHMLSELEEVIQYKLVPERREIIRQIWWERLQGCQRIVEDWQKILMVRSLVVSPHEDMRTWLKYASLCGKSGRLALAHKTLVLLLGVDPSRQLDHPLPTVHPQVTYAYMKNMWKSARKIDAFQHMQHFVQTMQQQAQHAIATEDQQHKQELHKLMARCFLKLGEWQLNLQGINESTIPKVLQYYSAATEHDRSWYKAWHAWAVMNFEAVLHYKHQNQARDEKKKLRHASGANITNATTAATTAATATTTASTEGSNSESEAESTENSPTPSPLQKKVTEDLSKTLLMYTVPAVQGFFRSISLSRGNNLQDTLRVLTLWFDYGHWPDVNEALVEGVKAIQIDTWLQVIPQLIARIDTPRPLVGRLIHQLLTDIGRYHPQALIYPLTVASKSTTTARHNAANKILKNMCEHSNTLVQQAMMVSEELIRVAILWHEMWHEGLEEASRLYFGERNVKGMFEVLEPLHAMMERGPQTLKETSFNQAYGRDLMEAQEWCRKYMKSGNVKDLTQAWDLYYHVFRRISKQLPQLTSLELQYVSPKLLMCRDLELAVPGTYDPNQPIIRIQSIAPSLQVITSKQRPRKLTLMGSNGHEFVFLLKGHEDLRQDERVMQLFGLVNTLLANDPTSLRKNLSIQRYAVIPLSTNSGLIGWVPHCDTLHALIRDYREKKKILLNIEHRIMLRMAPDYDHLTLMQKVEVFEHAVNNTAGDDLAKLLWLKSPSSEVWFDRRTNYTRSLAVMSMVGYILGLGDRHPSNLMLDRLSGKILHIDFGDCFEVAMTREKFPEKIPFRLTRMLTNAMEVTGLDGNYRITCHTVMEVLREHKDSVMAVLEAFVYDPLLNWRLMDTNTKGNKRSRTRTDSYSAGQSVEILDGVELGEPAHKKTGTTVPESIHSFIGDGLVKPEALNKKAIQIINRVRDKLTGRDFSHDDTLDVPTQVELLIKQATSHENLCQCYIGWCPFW

Structure (SMILES)	IC50 (human mTOR enzyme)	IC50 [1]	IC50 [2]
CC(=O)c1c([C@@H]2C[C@H]3CC[C@@H](C2)N3C(=O)c2nnc[nH]2)nc2c(-c3ccc(-c4nn(C)cc4F)nc3)cnn2c1N [Compound 1.1.93, 1-(5-((1R,3s,5S)-8-(4H-1,2,4-triazole-3-carbonyl)-8-azabicyclo[3.2.1]octan-3-yl)-7-amino-3-(6-(4-fluoro-1-methyl-1H-pyrazol-3-yl)pyridin-3-yl)pyrazolo[1,5-a]pyrimidin-6-yl)ethanone]	2.3 nM	4070 nM	3880 nM
Nc1cc([C@@H]2C[C@H]3CC[C@@H](C2)N3)nc2c(-c3cc[nH]c(=O)c3)cnn12 [Example 8B, 4-{7-Amino-5-[(3-exo)-8-azabicyclo[3.2.1]oct-3-yl]pyrazolo[1,5-a]pyrimidin-3-yl}pyridin-2(1H)-one]	489 nM	–	–
